Results reported in ChEMBL document CHEMBL2062364, “Discovery and optimization of new benzimidazole- and benzoxazole-pyrimidone selective PI3Kβ inhibitors for the treatment of phosphatase and TENsin homologue (PTEN)-deficient cancers” (J Med Chem, 2012).

How the values were obtained:
[1] = Plasma concentration in SCID mouse xenografted with PTEN-deficient human PC3 cells at 300 mg/kg, po BID measured after 6 hrs; format: ADME, organism-based, PC-3; design: dose 300 mg/kg, route oral
[2] = Drug metabolism in mouse liver microsomes; format: ADME, Microsome; conditions: read-out: Drug metabolism
[3] = target: T1, Phosphatidylinositol 4,5-bisphosphate 3-kinase catalytic subunit delta isoform (Homo sapiens, UniProt O00329); test: Inhibition of human PI3Kdelta-mediated Akt phosphorylation at Ser473 residue expressed in mouse MEF-3T3 cells after 0.5 to 2 hrs by Western blot analysis; format: cell-based
T1 sequence (O00329 whole entry): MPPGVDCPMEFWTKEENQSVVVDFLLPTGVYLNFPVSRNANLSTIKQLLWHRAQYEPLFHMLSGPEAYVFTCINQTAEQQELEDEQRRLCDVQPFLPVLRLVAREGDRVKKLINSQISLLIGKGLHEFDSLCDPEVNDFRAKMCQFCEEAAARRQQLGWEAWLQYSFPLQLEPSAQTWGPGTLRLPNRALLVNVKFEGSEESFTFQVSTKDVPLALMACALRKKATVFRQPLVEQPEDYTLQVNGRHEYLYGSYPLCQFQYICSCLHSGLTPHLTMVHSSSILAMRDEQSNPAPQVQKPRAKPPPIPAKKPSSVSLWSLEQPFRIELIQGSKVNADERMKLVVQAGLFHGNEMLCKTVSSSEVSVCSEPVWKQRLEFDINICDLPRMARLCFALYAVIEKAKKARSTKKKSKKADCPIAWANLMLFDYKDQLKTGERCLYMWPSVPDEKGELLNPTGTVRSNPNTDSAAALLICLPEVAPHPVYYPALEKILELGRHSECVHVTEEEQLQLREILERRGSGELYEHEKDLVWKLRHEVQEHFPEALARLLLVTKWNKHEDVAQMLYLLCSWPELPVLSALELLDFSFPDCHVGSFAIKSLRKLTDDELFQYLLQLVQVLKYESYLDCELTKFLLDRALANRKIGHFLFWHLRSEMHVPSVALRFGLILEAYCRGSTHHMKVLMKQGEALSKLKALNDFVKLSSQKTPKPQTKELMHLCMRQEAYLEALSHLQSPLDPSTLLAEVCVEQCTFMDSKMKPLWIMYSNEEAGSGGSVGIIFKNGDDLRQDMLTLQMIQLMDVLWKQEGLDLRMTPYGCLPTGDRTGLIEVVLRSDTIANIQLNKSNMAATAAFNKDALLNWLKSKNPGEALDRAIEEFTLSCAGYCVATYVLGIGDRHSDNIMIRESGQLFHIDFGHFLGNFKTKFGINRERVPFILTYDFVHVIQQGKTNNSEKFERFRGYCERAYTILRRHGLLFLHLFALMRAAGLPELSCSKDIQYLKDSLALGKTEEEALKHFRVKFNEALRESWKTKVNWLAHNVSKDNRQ

[4] = Drug uptake in tumor of SCID mouse xenografted with PTEN-deficient human PC3 cells at 300 mg/kg, po BID measured after 3 hrs; format: ADME, organism-based, Neoplasm, PC-3; design: dose 300 mg/kg, route oral; conditions: read-out: Drug uptake
[5] = target: Phosphatidylinositol 4,5-bisphosphate 3-kinase catalytic subunit gamma isoform (Homo sapiens, UniProt P48736); test: Inhibition of N-terminus poly-His tagged human PI3Kgamma expressed in baculovirus infected insect sf9 cells using PI(4,5)P2 as substrate preincubated with compound for 15 mins measured after 10 mins by HTRF assay
Chain of Phosphatidylinositol 4,5-bisphosphate 3-kinase catalytic subunit gamma isoform (P48736 whole entry, canonical isoform): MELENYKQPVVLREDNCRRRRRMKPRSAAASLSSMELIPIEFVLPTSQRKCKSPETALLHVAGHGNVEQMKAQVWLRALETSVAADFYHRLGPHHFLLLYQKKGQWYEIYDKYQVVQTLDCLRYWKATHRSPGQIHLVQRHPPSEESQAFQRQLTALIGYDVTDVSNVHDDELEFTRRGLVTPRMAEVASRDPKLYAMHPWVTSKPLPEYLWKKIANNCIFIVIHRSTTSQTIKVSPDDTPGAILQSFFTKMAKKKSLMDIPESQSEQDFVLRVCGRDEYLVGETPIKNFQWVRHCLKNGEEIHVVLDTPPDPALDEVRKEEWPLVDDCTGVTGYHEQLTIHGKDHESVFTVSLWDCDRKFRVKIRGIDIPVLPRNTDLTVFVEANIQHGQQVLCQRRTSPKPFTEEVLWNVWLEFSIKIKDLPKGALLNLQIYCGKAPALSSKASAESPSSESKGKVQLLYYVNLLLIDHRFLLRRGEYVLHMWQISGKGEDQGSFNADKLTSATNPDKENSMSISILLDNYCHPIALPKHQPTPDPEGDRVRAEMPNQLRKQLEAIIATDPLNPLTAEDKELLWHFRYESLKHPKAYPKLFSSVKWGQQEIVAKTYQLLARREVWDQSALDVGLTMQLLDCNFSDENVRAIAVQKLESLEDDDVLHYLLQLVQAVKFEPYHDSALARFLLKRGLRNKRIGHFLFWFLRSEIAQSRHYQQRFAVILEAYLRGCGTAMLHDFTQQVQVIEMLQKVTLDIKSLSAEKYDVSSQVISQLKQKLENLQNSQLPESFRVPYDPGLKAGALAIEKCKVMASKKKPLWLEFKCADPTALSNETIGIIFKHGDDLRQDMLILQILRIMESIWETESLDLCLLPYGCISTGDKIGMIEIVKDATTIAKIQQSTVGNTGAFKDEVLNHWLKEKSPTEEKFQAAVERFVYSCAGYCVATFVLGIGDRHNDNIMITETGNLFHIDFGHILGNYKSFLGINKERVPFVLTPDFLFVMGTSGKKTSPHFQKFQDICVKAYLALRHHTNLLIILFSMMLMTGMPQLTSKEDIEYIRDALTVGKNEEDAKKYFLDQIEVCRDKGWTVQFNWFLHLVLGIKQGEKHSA

[6] = Drug uptake in tumor of SCID mouse xenografted with PTEN-deficient human PC3 cells at 300 mg/kg, po BID measured after 0.5 hrs; format: ADME, organism-based, Neoplasm, PC-3; design: dose 300 mg/kg, route oral; conditions: read-out: Drug uptake
Mus musculus = test: Inhibition of Akt phosphorylation at T308 residue in SCID mouse bearing human PTEN-deficient PC3 cells at 300 mg/kg, po BID measured after 6 hrs; format: functional; conditions: PC-3, 6 h

`Cn1c(Cc2nc(N3CCOCC3)cc(=O)[nH]2)nc2ccccc21` showed a concentration at 6 h [1] of 11 µM, a metabolised [2] of 13% and an IC50 [3] of 2650 nM. For the same compound, the concentration at 3 h [4] was 6 µM, the IC50 [5] was over 10000 nM and the concentration at 0.5 h [6] was 13 µM. It also gave an inhibition in vivo at 300 mg/kg (Mus musculus) of over 50%.
